# Values of other authors in patent publication US20260117185A1, “ENHANCEMENT OF FIBROBLAST PLASTICITY FOR TREATMENT OF DISC DEGENERATION” (SPINALCYTE, LLC, priority 2018, published 2026).
# How the values were obtained:
# [1] = system: in vitro pre-mature senescence model; conditions: valproic acid treatment
# [2] = system: mesenchymal stem cells; conditions: culture of cells with valproic acid
# [3] = through the suppression of the p16/p21 pathway
smiles,measurement,setting,value
CCCC(CCC)C(=O)O [valproic acid],G2/M phase blockage derived from the senescence stress,[1],inhibited the G2/M phase blockage
same,apoptosis,[1]; [3],inhibited apoptosis
same,cell proliferation,[1]; [3],increased cell proliferation
same,immune regulatory and metabolic properties of mesenchymal stem cells,[2],enhanced immune regulatory and metabolic properties
